Tests used:
[1] = system: osteoclasts (破骨细胞); assay: TRAP staining (osteoclasts) of bone sections in mouse bone metastasis model; assay type: in vivo; conditions: Fig. 7N
[2] = system: breast cancer 4T1.2-luc cells (乳腺癌4T1.2-luc细胞); assay: Bioluminescence imaging in mouse breast cancer bone metastasis model; assay type: in vivo; conditions: 0.44mg/ml epirubicin alone, i.p., 5ml/kg, every 3 days
[3] = system: breast cancer 4T1.2-luc cells (乳腺癌4T1.2-luc细胞); assay: X-ray CT of hind limb bones in mouse bone metastasis model; assay type: in vivo; conditions: 0.44mg/ml epirubicin alone, i.p.
[4] = system: breast cancer 4T1.2-luc cells (乳腺癌4T1.2-luc细胞); assay: HE staining of bone sections in mouse bone metastasis model; assay type: in vivo; conditions: 0.44mg/ml epirubicin alone; Fig. 7H
[5] = system: breast cancer 4T1.2 cells (乳腺癌4T1.2细胞); assay: Survival of BALB/C mice with subcutaneous 4T1.2 tumors; assay type: in vivo, mouse; conditions: inhibitor given in combination with 0.44mg/ml epirubicin
[6] = system: MMP-9; assay: Immunoblot of MMP-9 expression in 4T1.2 cells (EMT); assay type: cell-based, mouse; conditions: 100nM and 1μM, 96h
[7] = system: human breast cancer cells MDA-MB-231 (人乳腺癌细胞MDA-MB-231)
[8] = target: T1, recombinant human legumain (重组人legumain蛋白(rhLegumain)) (Homo sapiens, UniProt Q99538); assay: AEP activity assay with recombinant human legumain, substrate Z-AAN-AMC; assay type: biochemical; conditions: Fig. 2E
T1 construct: 30ng/μl活化的rhLegumain在测定缓冲液; purchased 2199-CY
T1 sequence (Q99538 18-323 limits assumed): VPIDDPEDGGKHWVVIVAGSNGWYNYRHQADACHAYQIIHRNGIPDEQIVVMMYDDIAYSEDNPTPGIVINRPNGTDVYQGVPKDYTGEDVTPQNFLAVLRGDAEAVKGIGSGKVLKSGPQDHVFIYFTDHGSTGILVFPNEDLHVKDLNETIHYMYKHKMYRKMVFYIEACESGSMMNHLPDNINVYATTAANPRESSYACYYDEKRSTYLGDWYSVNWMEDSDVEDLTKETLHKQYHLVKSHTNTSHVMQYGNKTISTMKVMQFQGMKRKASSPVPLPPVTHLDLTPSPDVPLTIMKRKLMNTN

[9] = system: AEP (breast cancer 4T1.2 cells, 乳腺癌4T1.2细胞); assay: Immunoblot of AEP expression in 4T1.2 cells; assay type: cell-based, mouse; conditions: 1 μM, 96h, vs control (0nM), p<0.05
[10] = target: T2, endogenous AEP of 293L cells (293L细胞, AEP的内源性酶活性) (Homo sapiens, UniProt Q99538); assay: Endogenous AEP activity in cell lysate and medium of 293L cells; assay type: cell-based; conditions: 293L cells cultured with different doses of inhibitor
T2 construct: 验证抑制剂是否能有效抑制AEP的内源性酶活性; endogenous in cells; host or cells: 293L cells
T2 sequence (Q99538 18-433): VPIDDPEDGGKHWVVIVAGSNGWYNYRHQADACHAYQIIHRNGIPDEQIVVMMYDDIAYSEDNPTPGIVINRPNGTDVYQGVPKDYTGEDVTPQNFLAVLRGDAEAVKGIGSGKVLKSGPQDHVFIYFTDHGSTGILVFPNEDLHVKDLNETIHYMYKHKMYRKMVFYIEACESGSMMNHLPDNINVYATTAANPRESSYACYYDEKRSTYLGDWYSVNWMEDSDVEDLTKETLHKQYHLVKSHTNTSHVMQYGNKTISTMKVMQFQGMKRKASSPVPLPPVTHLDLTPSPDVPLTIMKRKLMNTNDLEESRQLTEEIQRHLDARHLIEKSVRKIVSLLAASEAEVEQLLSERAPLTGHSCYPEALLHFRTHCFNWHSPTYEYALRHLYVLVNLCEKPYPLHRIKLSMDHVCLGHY

[11] = system: breast cancer 4T1.2 cells (乳腺癌4T1.2细胞); assay: Transwell Matrigel invasion assay, 4T1.2; assay type: cell-based, mouse; conditions: 4T1.2, Transwell Matrigel, 12h, concentration-dependent
[12] = system: E-cadherin; assay: Immunoblot of E-cadherin expression in 4T1.2 cells (EMT); assay type: cell-based, mouse; conditions: 100nM and 1μM, 96h
[13] = system: 4T1.2 cells (4T1.2细胞); assay: Cell scratch (migration) assay, 4T1.2; assay type: cell-based, mouse; conditions: 4T1.2, scratch assay, concentration-dependent
[14] = system: mouse highly metastatic breast cancer cells 4T1.2 (小鼠高转移性乳腺癌细胞4T1.2)
[15] = system: breast cancer MDA-MB-231 cells (乳腺癌MDA-MB-231细胞); assay: Cell scratch (migration) assay, MDA-MB-231; assay type: cell-based, human; conditions: MDA-MB-231, scratch assay, concentration-dependent
[16] = system: Snail; assay: Immunoblot of Snail expression in 4T1.2 cells (EMT); assay type: cell-based, mouse; conditions: 100nM and 1μM, 96h

Molecule | increase in osteoclast number in the epirubicin group compared with the 2 inhibitor-treated groups ([1]; 0.44mg/ml epirubicin alone) | bone tumor growth (bioluminescence) [2] | bone structure and bone erosion (X-ray CT) [3] | tumor cell invasion of bone tissue (HE staining) [4] | increase in osteoclast number in the control group compared with the 2 inhibitor-treated groups ([1]; control (PBS) relative to groups given epirubicin + inhibitor) | survival of tumor mice [5] | MMP-9 expression [6] | cell viability / growth compared with control [7] | AEP enzyme activity over time ([8]; 100nM inhibitor vs control (0nM), p<0.05, pH5.0) | AEP enzyme activity over time ([8]; 1 μM inhibitor vs control (0nM), p<0.01, pH5.0) | decrease of AEP expression [9] [%] | AEP enzyme activity in cell culture medium [10] | number of invading cells [11] | E-cadherin expression [12] | cell migration ability [13] | cell viability / growth compared with control [14] | cell migration ability [15] | Snail expression [16]
COc1cccc2c1C(=O)c1c(O)c3c(c(O)c1C2=O)C[C@@](O)(C(=O)CO)C[C@@H]3O[C@H]1C[C@H](N)[C@@H](O)[C@H](C)O1 [表柔比星] | 3.6 倍 (fold) | 所有小鼠的胫骨近端、股骨或背侧脊柱都有肿瘤生长 | 骨结构不完整,存在骨侵蚀 | 肿瘤细胞突破了骨组织,呈现侵袭状 |  |  |  |  |  |  |  |  |  |  |  |  |  | 
CH2CH[N(CH2CH3)2]CON(COCH2Cl)CH2CONH2 [化合物①] |  |  |  |  | 4 倍 (fold) | 明显延长 | 表达下调 | 与对照组相差很小 | 显著抑制 | 显著抑制 | 82.31 | 能够以剂量依赖性方式抑制 | 减少各细胞的侵袭细胞数目 | 表达上调 | 减弱 | 与对照组相差很小 | 减弱 | 表达下调

Source: CN114573468A, “蛋白抑制剂及其应用” (priority 2022, dated 2022)
